Marks after values point to notes of the source that are not given here. Some results are limits rather than exact numbers.

The source of these data is paper PMC9267955, “Antidiabetic, Antiglycation, and Antioxidant Activities of Ethanolic Seed Extract of Passiflora edulis and Piceatannol In Vitro” (Molecules, 2022).

Series [1] in a line: Superoxide anion radical scavenging activity. The protocol:
The potential of the samples to scavenger superoxide anion radicals was determined, with minor modifications. […] Phosphate buffer (19 mM, pH 7.4) was used to dissolve NADH, NBT, and PMS. QCT was used as means of comparison. The experiment was conducted at 37 °C in a microplate reader (Infinite® 200 PRO, TECAN, Männedorf, Switzerland), and the absorbance was measured at 560 nm. The results were expressed as IC50 of extract solution in μg/mL.

The subject of series [2] is high-fat diet-fed C57BL/6J mice. Also on record: method as in PMID 25832644. The following applies: PIC supplementation; cited from earlier work.
Series [3] deals with amyloid fibrils of glycated BSA (BSA/Fru + Glu). The series can be described thus: Inhibition of amyloid fibril formation, ThT assay (BSA/Fru + Glu). The class given is biochemical, bovine. The protocol: The formation of AGEs was measured after incubation of a system containing protein and carbohydrates. This assay was based on previous methods. The reaction system was obtained by adding 300 µL of plant extract or of the pure compound (at different concentrations), 150 µL D-fructose (200 mM), 150 µL of D-glucose (200 mM), and 300 µL of bovine serum albumin (BSA, 3 mg/mL) to a test tube. All these solutions, except plant extract, were dissolved in 0.05 M potassium phosphate buffer (pH 7.4) containing NaCl (100 mM) and NaN3 (0.02% w/v). The plant extract was prepared in a buffer containing 60% ethanol. The mixture was incubated in the dark at 37 °C for 7 days with constant stirring. After the incubation, 200 µL of the reaction mixture was transferred to a 96-well black plate, and fluorescent AGEs were measured using a microplate reader (Infinite® 200 PRO, TECAN, Männedorf, Switzerland) at λex = 360 and λem = 440 nm. […] The fluorescence readings for the experimental treatment were blanked against extract blanks to eliminate the baseline fluorescence of the sample. The percentage of the AGE inhibition and IC50 was calculated as described in Section 3.3.1.
The fibrillar state of modified BSA was determined with ThT as previously described. ThT is a probe that binds directly to amyloid fibrils to give a strong fluorescent signal and thus can be used to quantify β-amyloid due to protein glycation. […]

A further series addresses alpha-glucosidase. Also on record: method as in PMID 31986026. The settings on record: cited from earlier work.
The subject of the next series is AML-12 cells. In words: MTS cell viability assay. The class given is cell-based, mouse. The settings on record: up to 250 µg/mL; 24 h. The protocol: (§1) BEAS-2B, MCF10-A, and AML-12, cells were purchased from the American Tissue Type Culture Collection (ATCC; CRL-9609, CRL-10317, and CRL-2254) and cultured with a specific medium. BEAS-2B cells were cultured with LHC-9 media at 37 °C in an incubator with 5% CO2. […] Cells were grown to around 70% confluence on the culture flask, and passages (<10) were employed for all experimental conditions. MTS Cell Titer 96™ aqueous cell proliferation assay was used to determine cell viability. […] For that, 1 × 10^4 cells were plated on a 96-well plate with a growth medium of 100 μL/well. […] Fifteen microliters of MTS reagent (with PMS) was then added to each well and incubated for 3 h in the dark. Absorbance was recorded at 490 nm using a microplate reader (Infinite® 200 PRO, TECAN, Männedorf, Switzerland). For each experiment, cells with DMSO media served as control, and cells with only culture medium and MTS reagent served as the blank.
On the technique in general: Tetrazolium assays rely on reduction of a dye to a coloured formazan, in cell work by metabolically active cells.

The subject of a further series is BEAS-2B cells. In words: MTS cell viability assay. The class given is cell-based, human. The settings on record: 100 µg/mL (409 µM); 24 h. How it is done:
as §1

A short description of another series: MTS cell viability assay. The class given is cell-based. The following applies: human, MCF-10A cells, up to 100 µg/mL. How it is done: as §1
In the next series the test system is cultured myotubes. Also on record: method as in PMID 25832644. The following applies: in the absence of insulin; cited from earlier work.
Series [4] in a line: DPPH radical scavenging assay. How it is done: After incubation in the dark for 30 min, the absorbance was read at 516 nm, using a UV–Vis spectrophotometer (Agilent Technologies, Santa Clara, CA, USA). Results were expressed as the half-maximal inhibitory concentration (IC50) in μg/mL.
(In general: Loss of DPPH colour is used to gauge radical scavenging.)

Another series deals with MCF-10A cells. The series can be described thus: Intracellular ROS level (DCFH-DA) after NNKOAc. The class given is cell-based. The following applies: 50 µg/mL, 3 h pretreatment; NNKOAc 100 µM. How it is done: The generation of intracellular ROS in BEAS-2B, AML-12, and MCF-10A cells after treatments was measured as described previously. Briefly, DCFH-DA dye was readily taken up by cells and is subsequently hydrolyzed to DCFH, which can be oxidized to a measurable fluorescent product dichlorofluorescein (DCF). […] Cells with DMSO media (0.5%) served as the vehicle control. After treatments, DCFH-DA was added to the cell culture plates at a final concentration of 5 μM followed by 40 min incubation at dark. The fluorescence […] was then measured at an excitation and emission wavelength of 485 nm and 535 nm, using a microplate reader (Infinite® 200 PRO, TECAN, Männedorf, Switzerland).
BEAS-2B, MCF10-A, and AML-12, cells were purchased from the American Tissue Type Culture Collection (ATCC; CRL-9609, CRL-10317, and CRL-2254) and cultured with a specific medium. BEAS-2B cells were cultured with LHC-9 media at 37 °C in an incubator with 5% CO2. Culture flasks (polystyrene T75) were pre-coated with a mixture of 0.01 mg/mL fibronectin, 0.03 mg/mL bovine collagen type I, and 0.01 mg/mL bovine serum albumin were dissolved in LHC-9 medium overnight. […]

By IC50 is commonly meant the concentration needed to halve the response being measured. For orientation: viability means a per cent measure of how many cells are alive, often set against a control. High values mean better survival, low ones a greater loss of cells. For the molecule `Oc1cc(O)cc(/C=C/c2ccc(O)c(O)c2)c1` [PIC, 3,3′,4′,5-trans-tetrahydroxystilbene], the “O2•− IC50” value in [1] was 7.3 ± 0.02 µg/mL. Moreover, the IC50 in series [1] (data in parenthesis are in μM, read-out: O2•− IC50 (in parenthesis) (converted)) is 30.1 µM; on alpha-glucosidase it was 4.3 ± 0.07 µM; in series [4] (data in parenthesis are in μM) it was 25.8 µM. Further, the “Fasting blood glucose, high-fat diet-fed C57BL/6J mice” value in [2] is listed as “reduced fasting blood glucose”. In series [3] (abstract, glycation system not specified), the “Inhibition of the formation of β-amyloid fibrils in vitro” value was “up to 100%”. Further, in series [3] (highest obtained, PESE 200, PIC 200, AMG 100 µg/mL, BSA/Fru + Glu), the “Inhibition of Amyloid Fibrils (%), Fructose + Glucose” value is 100 ± 5.3 ^a %. In addition, the “Viability of AML-12 cells” value with AML-12 cells was “maintained”. Further, the “Reduction of cell viability of BEAS-2B cells” value in the series with BEAS-2B cells is recorded as “approximately 50%”. In addition, in “MTS cell viability assay”, the viability at 24 h was above 80%. Further, the “Glucose uptake in cultured myotubes” value in the series with cultured myotubes is on record as “promoted glucose uptake”. The “DPPH• IC50” value in series [4] (30 min) stood at 6.3 ± 1.3 µg/mL. The “Protection from oxidative stress (ROS) caused by the carcinogen, MCF-10A” value in the series with MCF-10A cells is given as “able to protect”.
